Patent publication US20140023611A1 (priority 2010, published 2014)

Tests used:
[1] = Determination of compound Cmax and AUC after oral gavage (plasma LC-MS/MS); format: in vivo, Sprague-Dawley rats; settings: Sprague-Dawley, rat, plasma, po, Structure (I) examples
How it was run: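 Sprague-Dawley rats dosed by oral gavage at nominal 2.5 or 10 mg/kg; blood drawn at 0.5, 1, 2 and 4 h into K2EDTA. Plasma protein-precipitated with acetonitrile plus internal standard and analysed by LC-MS/MS against a plasma standard curve to derive Cmax and AUC.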

[2] = molecular target: T1, human NaP2b (SLC34A2) (Homo sapiens, UniProt O95436); experiment: Inhibition of NaP2b-mediated Pi (33P) uptake in transfected HEK293 cells, human NaP2b; format: cell-based; settings: read-out: pIC50 range for human NaP2b (converted)
T1 construct: host or cells: HEK293
T1 sequence (O95436 1-690): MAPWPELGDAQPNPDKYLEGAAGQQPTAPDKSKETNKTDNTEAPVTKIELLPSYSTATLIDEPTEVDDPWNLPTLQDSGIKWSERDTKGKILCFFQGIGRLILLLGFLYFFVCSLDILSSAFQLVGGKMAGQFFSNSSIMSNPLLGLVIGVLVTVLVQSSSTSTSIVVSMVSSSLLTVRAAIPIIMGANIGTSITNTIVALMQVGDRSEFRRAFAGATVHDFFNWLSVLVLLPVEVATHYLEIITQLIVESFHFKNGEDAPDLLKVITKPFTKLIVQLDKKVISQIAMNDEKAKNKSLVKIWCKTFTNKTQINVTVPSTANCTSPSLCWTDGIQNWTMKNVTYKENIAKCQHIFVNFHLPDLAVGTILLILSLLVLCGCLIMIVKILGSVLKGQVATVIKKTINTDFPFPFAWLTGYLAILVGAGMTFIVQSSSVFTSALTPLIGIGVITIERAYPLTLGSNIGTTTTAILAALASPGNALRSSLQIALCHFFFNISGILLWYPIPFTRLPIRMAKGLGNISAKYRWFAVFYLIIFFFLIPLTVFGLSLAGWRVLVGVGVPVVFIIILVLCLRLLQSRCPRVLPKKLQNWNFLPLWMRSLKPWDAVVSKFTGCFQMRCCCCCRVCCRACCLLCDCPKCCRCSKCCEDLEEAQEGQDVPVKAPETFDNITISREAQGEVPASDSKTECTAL
How it was run: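 HEK293 cells transiently transfected with human NaP2b (Thr inserted after residue 37, N39D), endogenous PiT transport pharmacologically silenced. Sodium or choline buffer, pH 7.4, with 100 uM KH2PO4, 33P orthophosphate and compound (0.1 nM–30 uM, twelve concentrations, duplicate). 3-30 min at room temperature, scintillation counting, pIC50 derived.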

[3] = Table 15, actual oral dose 3-15 mg/kg, plasma 0.5-4 h
[4] = Table 15, actual oral dose 15-40 mg/kg, plasma 0.5-4 h

| AUC [1, 3] [ng·h/mL] | Cmax [1, 3] [ng/mL] | IC50 [2] [µM] | AUC [1, 4] [ng·h/mL] | Cmax ([1]; Table 15, plasma 0.5-4 h) [ng/mL] | SMILES |
| --- | --- | --- | --- | --- | --- |
| < 10 | < 10 | < 1 |  |  | CCN(CC)c1ccc(NC(=O)c2cccc(CSc3cccc(CC(=O)N(C)CCOCCOCCOCCC(=O)O)c3)c2)c(-c2cc(C(=O)NCc3cccc(C(F)(F)F)c3)ccn2)c1 [Example 144, 3-(2-(2-(2-(2-(3-(3-(4-(diethylamino)-2-(4-(3-(trifluoromethyl)benzylcarbamoyl)pyridin-2-yl)phenylcarbamoyl)benzylthio)phenyl)-N-methylacetamido)ethoxy)ethoxy)ethoxy)propanoic acid] |
| < 10 | < 10 | < 1 |  |  | CCN(CC)c1ccc(NC(=O)c2cccc(CSCCOCCOCCOCCOCCC(=O)O)c2)c(-c2cc(C(=O)NCc3cccc(C(F)(F)F)c3)ccn2)c1 [Example 162, 1-(3-(4-(diethylamino)-2-(4-(3-(trifluoromethyl)benzylcarbamoyl)pyridin-2-yl)phenylcarbamoyl)phenyl)-5,8,11,14-tetraoxa-2-thiaheptadecan-17-oic acid] |
| < 10 | < 10 | 1 to 7.94 | < 50 | > 50 | CCN(CC)c1ccc(NC(=O)c2cccc(CSCCOCCOCCOCCOCCOCCOCCOCCOCCC(=O)O)c2)c(-c2cc(C(=O)NCc3cccc(C(F)(F)F)c3)ccn2)c1 [Example 166, 1-(3-(4-(diethylamino)-2-(4-(3-(trifluoromethyl)benzylcarbamoyl)pyridin-2-yl)phenylcarbamoyl)phenyl)-5,8,11,14,17,20,23,26-octaoxa-2-thianonacosan-29-oic acid] |
| < 30 | < 30 | < 1 |  |  | O=C(O)CCOCCOCCOCCOCCCc1cccc(C(=O)Nc2ccc(N3CCCCC3)cc2-c2cc(C(=O)N[C@H]3CCCc4ccccc43)ccn2)c1 [Example 252, 3-(2-(2-(2-(3-(3-((2-(4-(((S)-1,2,3,4-tetrahydronaphthalen-1-yl)carbamoyl)pyridin-2-yl)-4-(piperidin-1-yl)phenyl)carbamoyl)phenyl)propoxy)ethoxy)ethoxy)ethoxy)propanoic acid] |
| > 50 | < 50 | < 1 |  |  | CCN(CC)c1ccc(NC(=O)c2cccc(CCCOCCOCCOCCOCCOCCOCCOCCOCCOC)c2)c(-c2cc(C(=O)N[C@H]3CCCc4ccccc43)ccn2)c1 [Example 261, (S)-2-(2-(3-(2,5,8,11,14,17,20,23,26-nonaoxanonacosan-29-yl)benzamido)-5-(diethylamino)phenyl)-N-(1,2,3,4-tetrahydronaphthalen-1-yl)isonicotinamide] |
|  |  | 1 to 7.94 | < 10 | < 10 | CCN(CC)c1ccc(NC(=O)c2cccc(CCCOCCOCCOCCOCCNS(=O)(=O)c3ccc(C(=O)N(CCOC)CCOCCOCCOCCOCCOCCOCCOC)cc3)c2)c(-c2cc(C(=O)NCc3cccc(C(F)(F)F)c3)ccn2)c1 [Example 272, 2-(2-(3-(1-(4-(2,5,8,11,14,17,20-heptaoxadocosan-22-yl(2-methoxyethyl)carbamoyl)phenylsulfonamido)-3,6,9,12-tetraoxapentadecan-15-yl)benzamido)-5-(diethylamino)phenyl)-N-(3-(trifluoromethyl)benzyl)isonicotinamide] |

Second part, the compound before the results:

| SMILES | AUC [1, 3] [ng·h/mL] | Cmax [1, 3] [ng/mL] | IC50 [2] [µM] | AUC [1, 4] [ng·h/mL] | Cmax ([1]; Table 15, plasma 0.5-4 h) [ng/mL] |
| --- | --- | --- | --- | --- | --- |
| O=C(O)c1cccc(SCc2cccc(C(=O)Nc3ccc(N4CCCCC4)cc3-c3cc(C(=O)NCc4cccc(C(F)(F)F)c4)ccn3)c2)c1 [Example 8.1, 3-(3-(4-(piperidin-1-yl)-2-(4-(3-(trifluoromethyl)benzylcarbamoyl)pyridin-2-yl)phenylcarbamoyl)benzylthio)benzoic acid] | < 30 | < 10 | < 1 |  |  |
| O=C(NCc1cccc(C(F)(F)F)c1)c1ccnc(-c2cc(N3CCCCC3)ccc2NC(=O)c2cccc(CSc3ccc(C(=O)O)c(Br)c3)c2)c1 [Example 8.21] | < 30 | < 30 | 1.26 |  |  |
| CN(CCN1CCOCC1)C(=O)c1cccc(C(=O)Nc2ccc(N3CCCCC3)cc2-c2cc(C(=O)NCc3cccc(C(F)(F)F)c3)ccn2)c1 [Example 80, N1-Methyl-N1-(2-morpholinoethyl)-N3-(4-(piperidin-1-yl)-2-(4-((3-(trifluoromethyl)benzyl)carbamoyl)pyridin-2-yl)phenyl)isophthalamide] |  | < 10 | 1 to 7.94 |  |  |
| CN(CCOCCOCCOCCC(=O)O)C(=O)Cc1cccc(SCc2cccc(C(=O)Nc3ccc(N4CCCCC4)cc3-c3cc(C(=O)NCc4cccc(C(F)(F)F)c4)ccn3)c2)c1 [Example 138] | < 10 | < 10 | 1 to 7.94 |  |  |
| O=C(O)CCOCCOCCOCCOCCSCc1cccc(C(=O)Nc2ccc(N3CCCCC3)cc2-c2cc(C(=O)N[C@H]3CCCc4ccccc43)ccn2)c1 [Example 142, 1-(3-{[4-(piperidin-1-yl)-2-(4-{[(1S)-1,2,3,4-tetrahydronaphthalen-1-yl]carbamoyl}pyridin-2-yl)phenyl]carbamoyl}phenyl)-5,8,11,14-tetraoxa-2-thiaheptadecan-17-oic acid] | < 10 | < 10 | 1 to 7.94 |  |  |
| CCN(CC)c1ccc(NC(=O)c2cccc(CSCCOCCOCCOCCOCCOCCOCCOCCOCCC(=O)O)c2)c(-c2cc(C(=O)N[C@H]3CCCc4ccccc43)ccn2)c1 [Example 161, (S)-1-(3-(4-(diethylamino)-2-(4-(1,2,3,4-tetrahydronaphthalen-1-ylcarbamoyl)pyridin-2-yl)phenylcarbamoyl)phenyl)-5,8,11,14,17,20,23,26-octaoxa-2-thianonacosan-29-oic acid] | < 10 | < 10 | 1 to 7.94 |  |  |
| O=C(O)CCOCCOCCOCCNC(=O)c1cccc2c1ccn2Cc1cccc(C(=O)Nc2ccc(N3CCCCC3)cc2-c2cc(C(=O)N[C@H]3CCCc4ccccc43)ccn2)c1 [Example 181, (S)-1-oxo-1-(1-(3-(4-(piperidin-1-yl)-2-(4-(1,2,3,4-tetrahydronaphthalen-1-ylcarbamoyl)pyridin-2-yl)phenylcarbamoyl)benzyl)-1H-indol-4-yl)-5,8,11-trioxa-2-azatetradecan-14-oic acid] | < 30 | < 30 | < 1 |  |  |
| CCN(CC)c1ccc(NC(=O)c2cccc(C(=O)N(C)CCOCCOCCOCCC(=O)O)c2)c(-c2cc(C(=O)NCc3cccc(C(F)(F)F)c3)ccn2)c1 [Example 188, 1-(3-((4-(diethylamino)-2-(4-((3-(trifluoromethyl)benzyl)carbamoyl)pyridin-2-yl)phenyl)carbamoyl)phenyl)-2-methyl-1-oxo-5,8,11-trioxa-2-azatetradecan-14-oic acid] | < 10 | < 10 | 1 to 7.94 |  |  |
| CCCN(CCC)c1ccc(NC(=O)c2cccc(COCCOCCOCCOCCOCCOCCOCCOCCOC)c2)c(-c2cc(C(=O)NCc3cccc(C(F)(F)F)c3)ccn2)c1 [Example 200, 2-(2-(3-(2,5,8,11,14,17,20,23,26-nonaoxaheptacosyl)benzamido)-5-(dipropylamino)phenyl)-N-(3-(trifluoromethyl)benzyl)isonicotinamide] | < 30 | < 30 | < 1 |  |  |
| CCN(CC)c1ccc(NC(=O)c2cccc(CCCOCCOCCOCCOCCC(=O)O)c2)c(-c2cc(C(=O)NCc3cccc(C(F)(F)F)c3)ccn2)c1 [Example 251, 16-(3-(4-(diethylamino)-2-(4-(3-(trifluoromethyl)benzylcarbamoyl)pyridin-2-yl)phenylcarbamoyl)phenyl)-4,7,10,13-tetraoxahexadecan-1-oic acid] | < 10 | < 10 | < 1 |  |  |
| CCN(CC)c1ccc(NC(=O)c2cccc(CSCCOCCOCCOCCOCCOCCOCCOCCOC)c2)c(-c2cc(C(=O)NCc3cccc(C(F)(F)F)c3)ccn2)c1 [Example 265, 2-(2-(3-(2,5,8,11,14,17,20,23-octaoxa-26-thiaheptacosan-27-yl)benzamido)-5-(diethylamino)phenyl)-N-(3-(trifluoromethyl)benzyl)isonicotinamide] | < 30 | < 30 | < 1 |  |  |
| CCN(CC)c1ccc(NC(=O)c2cccc(CCCOCCOCCOCCOCCOCCOCCOCCOCCOC)c2)c(-c2cc(C(=O)NCc3cccc(C(F)(F)F)c3)ccn2)c1 [Example 269, 2-(2-(3-(2,5,8,11,14,17,20,23,26-nonaoxanonacosan-29-yl)benzamido)-5-(diethylamino)phenyl)-N-(3-(trifluoromethyl)benzyl)isonicotinamide] | < 10 | < 10 | < 1 |  |  |
